Source: US9115126B2, “1H-[1,2,3]triazolo[4,5-c]pyridine-4-carbonitrile derivatives” (Merck Sharp & Dohme B.V., priority 2010, dated 2015)
Counter-ions that a name gives are not always drawn.

The compounds below were run against recombinant human Cathepsin S (Homo sapiens (Human), UniProt P25774) (assay: Cathepsin S assay procedure (fluorogenic substrate Z-Val-Val-Arg-AMC)). Details: pH5.5, fluorescence at 20 minutes, read-out: Cat S activity IC50.
Sequence of recombinant human Cathepsin S (P25774 115-331): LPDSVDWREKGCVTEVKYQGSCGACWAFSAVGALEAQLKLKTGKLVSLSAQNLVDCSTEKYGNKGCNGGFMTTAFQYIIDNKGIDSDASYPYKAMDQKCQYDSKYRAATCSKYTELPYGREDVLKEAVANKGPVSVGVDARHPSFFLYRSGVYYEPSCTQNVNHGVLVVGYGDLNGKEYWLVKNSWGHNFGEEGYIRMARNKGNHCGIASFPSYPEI
Assay type: biochemical
Procedure: 25 μl of a 2 mg/l solution of activated recombinant human cathepsin S, in assay buffer, is then added to the well, yielding a final inhibitor concentration of 10 μM.
Enzyme activity is determined by measuring the fluorescence of the liberated aminomethylcoumarin at […] using 390 nm excitation, at 20 minutes. Percentage enzyme activity is calculated by comparison of this activity to that of a solution containing no inhibitor.
With `Cc1cccc(N2CCC(CCOc3ccc(-c4cc5c(ncn5C)c(C#N)n4)cc3C(F)(F)F)CC2)n1` [EP 09150709.5 - Example 24c, reference compound] the IC50 was 0.026 µM. With `Cn1nnc2c(C#N)nc(-c3ccc(OCCC4CCNCC4)c(C(F)(F)F)c3)cc21` [Example 1, 1-methyl-6-(4-(2-(piperidin-4-yl)ethoxy)-3-(trifluoromethyl)phenyl)-1H-[1,2,3]triazolo[4,5-c]pyridine-4-carbonitrile] the IC50 was 0.0008 µM. Compound `Cc1cccc(N2CCC(CCOc3ccc(-c4cc5c(nnn5C)c(C#N)n4)cc3C(F)(F)F)CC2)n1` [Example 4b, 1-methyl-6-(4-(2-(1-(6-methylpyridin-2-yl)piperidin-4-yl)ethoxy)-3-(trifluoromethyl)phenyl)-1H-[1,2,3]triazolo[4,5-c]pyridine-4-carbonitrile hydrochloride] has an IC50 of 0.009 µM. `CN(C)CCCOc1ccc(-c2cc3c(nnn3C)c(C#N)n2)cc1C(F)(F)F` [Example 35, 6-(4-(3-(dimethylamino)propoxy)-3-(trifluoromethyl)phenyl)-1-methyl-1H-[1,2,3]triazolo[4,5-c]pyridine-4-carbonitrile] gave an IC50 of 0.0033 µM.

Same assay, conditions: read-out: pIC50 (negative logarithm of the IC50 concentration) for inhibition of human cathepsin S (converted)
In the case of `Cn1nnc2c(C#N)nc(-c3ccc(OCCC4CCNCC4)c(C(F)(F)F)c3)cc21` [Example 1, 1-methyl-6-(4-(2-(piperidin-4-yl)ethoxy)-3-(trifluoromethyl)phenyl)-1H-[1,2,3]triazolo[4,5-c]pyridine-4-carbonitrile], the IC50 is reported as under 0.01 µM. With `CNC(=O)CN1CCC(CCOc2ccc(-c3cc4c(nnn4C)c(C#N)n3)cc2C(F)(F)F)CC1` [Example 2b, 1-methyl-6-(4-(2-(1-(2-methylamino-2-oxoethyl)piperidin-4-yl)ethoxy)-3-(trifluoromethyl)phenyl)-1H-[1,2,3]triazolo[4,5-c]pyridine-4-carbonitrile TFA salt] the IC50 was under 0.01 µM. `Cn1nnc2c(C#N)nc(-c3ccc(OCCC4CCN(CC(N)=O)CC4)c(C(F)(F)F)c3)cc21` [Example 2c, 6-(4-(2-(1-(2-amino-2-oxoethyl)piperidin-4-yl)ethoxy)-3-(trifluoromethyl)phenyl)-1-methyl-1H-[1,2,3]triazolo[4,5-c]pyridine-4-carbonitrile] gave an IC50 of under 0.01 µM. `Cn1nnc2c(C#N)nc(-c3ccc(OCCC4CCN(Cc5ncon5)CC4)c(C(F)(F)F)c3)cc21` [Example 3c, 6-(4-(2-(1-((1,2,4-oxadiazol-3-yl)methyl)piperidin-4-yl)ethoxy)-3-(trifluoromethyl)phenyl)-1-methyl-1H-[1,2,3]triazolo[4,5-c]pyridine-4-carbonitrile] gave an IC50 of under 0.01 µM. `Cn1nnc2c(C#N)nc(-c3ccc(OCCC4CCN(Cc5ncno5)CC4)c(C(F)(F)F)c3)cc21` [Example 3k, 6-(4-(2-(1-((1,2,4-oxadiazol-5-yl)methyl)piperidin-4-yl)ethoxy)-3-(trifluoromethyl)phenyl)-1-methyl-1H-[1,2,3]triazolo[4,5-c]pyridine-4-carbonitrile] was tested, and the IC50 was under 0.01 µM. In the case of `Cn1nnc2c(C#N)nc(-c3ccc(OCCC4CCN(c5ccccn5)CC4)c(C(F)(F)F)c3)cc21` [Example 4a, 1-methyl-6-(4-(2-(1-(pyridin-2-yl)piperidin-4-yl)ethoxy)-3-(trifluoromethyl)phenyl)-1H-[1,2,3]triazolo[4,5-c]pyridine-4-carbonitrile hydrochloride], the IC50 is reported as under 0.01 µM. `Cc1cccc(N2CCC(CCOc3ccc(-c4cc5c(nnn5C)c(C#N)n4)cc3C(F)(F)F)CC2)n1` [Example 4b, 1-methyl-6-(4-(2-(1-(6-methylpyridin-2-yl)piperidin-4-yl)ethoxy)-3-(trifluoromethyl)phenyl)-1H-[1,2,3]triazolo[4,5-c]pyridine-4-carbonitrile hydrochloride] showed an IC50 of under 0.01 µM. With `Cc1ccc(N2CCC(CCOc3ccc(-c4cc5c(nnn5C)c(C#N)n4)cc3C(F)(F)F)CC2)nc1` [Example 8, 1-methyl-6-(4-(2-(1-(5-methylpyridin-2-yl)piperidin-4-yl)ethoxy)-3-(trifluoromethyl)phenyl)-1H-[1,2,3]triazolo[4,5-c]pyridine-4-carbonitrile hydrochloride] the IC50 was under 0.01 µM. For `Cc1ccc(N2CC[C@@H](CCOc3ccc(-c4cc5c(nnn5C)c(C#N)n4)cc3C(F)(F)F)C2)nc1` [Example 9a, (S)-1-methyl-6-(4-(2-(1-(5-methylpyridin-2-yl)pyrrolidin-3-yl)ethoxy)-3-(trifluoromethyl)phenyl)-1H-[1,2,3]triazolo[4,5-c]pyridine-4-carbonitrile hydrochloride], the IC50 was under 0.01 µM. With `Cc1ccc(N2CC[C@H](CCOc3ccc(-c4cc5c(nnn5C)c(C#N)n4)cc3C(F)(F)F)C2)nc1` [Example 9b, (R)-1-methyl-6-(4-(2-(1-(5-methylpyridin-2-yl)pyrrolidin-3-yl)ethoxy)-3-(trifluoromethyl)phenyl)-1H-[1,2,3]triazolo[4,5-c]pyridine-4-carbonitrile hydrochloride] the IC50 was under 0.01 µM. In the case of `Cn1nnc2c(C#N)nc(-c3ccc(OCCC4CCN(CCS(C)(=O)=O)CC4)c(C(F)(F)F)c3)cc21` [Example 19, 1-methyl-6-(4-(2-(1-(2-(methylsulfonyl)ethyl)piperidin-4-yl)ethoxy)-3-(trifluoromethyl)phenyl)-1H-[1,2,3]triazolo[4,5-d]pyridine-4-carbonitrile], the IC50 is reported as under 0.01 µM. Work on `Cn1nnc2c(C#N)nc(-c3ccc(OCc4ccccn4)c(C(F)(F)F)c3)cc21` [Example 20, 1-methyl-6-(4-(pyridin-2-ylmethoxy)-3-(trifluoromethyl)phenyl)-1H-[1,2,3]triazolo[4,5-c]pyridine-4-carbonitrile] yielded an IC50 of under 0.01 µM. `Cn1nnc2c(C#N)nc(-c3ccc(OCc4cccc[n+]4[O-])c(C(F)(F)F)c3)cc21` [Example 21, 1-methyl-6-(4-(1-N-oxy-pyridin-2-ylmethoxy)-3-(trifluoromethyl)phenyl)-1H-[1,2,3]triazolo[4,5-c]pyridine-4-carbonitrile] showed an IC50 of under 0.01 µM. `Cn1nnc2c(C#N)nc(-c3ccc(OCc4cccnc4)c(C(F)(F)F)c3)cc21` [Example 22, 1-methyl-6-(4-(pyridin-3-ylmethoxy)-3-(trifluoromethyl)phenyl)-1H-[1,2,3]triazolo[4,5-c]pyridine-4-carbonitrile] showed an IC50 of under 0.01 µM. `Cn1nnc2c(C#N)nc(-c3ccc(OCc4ccc[n+]([O-])c4)c(C(F)(F)F)c3)cc21` [Example 23, methyl-6-(4-(1-N-oxy-pyridin-3-ylmethoxy)-3-(trifluoromethyl)phenyl)-1H-[1,2,3]triazolo[4,5-c]pyridine-4-carbonitrile] gave an IC50 of under 0.01 µM. `Cn1nnc2c(C#N)nc(-c3ccc(OCc4ccncc4)c(C(F)(F)F)c3)cc21` [Example 24, 1-methyl-6-(4-(pyridin-4-ylmethoxy)-3-(trifluoromethyl)phenyl)-1H-[1,2,3]triazolo[4,5-c]pyridine-4-carbonitrile] gave an IC50 of under 0.01 µM. Work on `Cn1nnc2c(C#N)nc(-c3ccc(OCc4cc[n+]([O-])cc4)c(C(F)(F)F)c3)cc21` [Example 25, methyl-6-(4-(1-N-oxy-pyridin-4-ylmethoxy)-3-(trifluoromethyl)phenyl)-1H-[1,2,3]triazolo[4,5-c]pyridine-4-carbonitrile] yielded an IC50 of under 0.01 µM. `Cn1nnc2c(C#N)nc(-c3cnc(OCCC4CCNCC4)c(C(F)(F)F)c3)cc21` [Example 26, 1-Methyl-6-(6-(2-(piperidin-4-yl)ethoxy)-5-(trifluoromethyl)pyridin-3-yl)-1H-[1,2,3]-triazolo[4,5-c]pyridine-4-carbonitrile trifluoroacetate] gave an IC50 of under 0.01 µM. In the case of `CN(C)C(=O)CN1CCC(CCOc2ncc(-c3cc4c(nnn4C)c(C#N)n3)cc2C(F)(F)F)CC1` [Example 27a, 6-(6-(2-(1-(2-Dimethylamino-2-oxo-ethyl)piperidin-4-yl)ethoxy)-5-(trifluoromethyl)pyridin-3-yl)-1-methyl-1H-[1,2,3]triazolo[4,5-c]pyridine-4-carbonitrile hydrochloride], the IC50 is reported as under 0.01 µM. Work on `Cn1nnc2c(C#N)nc(-c3ccc(OCCC4CCN(C(=O)C5(N)CC5)CC4)c(C(F)(F)F)c3)cc21` [Example 29, 6-(4-(2-(1-(1-aminocyclopropanecarbonyl)piperidin-4-yl)ethoxy)-3-(trifluoromethyl)phenyl)-1-methyl-1H-[1,2,3]triazolo[4,5-d]pyridine-4-carbonitrile] yielded an IC50 of under 0.01 µM. In the case of `Cn1nnc2c(C#N)nc(-c3ccc(OCCC4CNC4)c(C(F)(F)F)c3)cc21` [Example 30, 6-(4-(2-(azetidin-3-yl)ethoxy)-3-(trifluoromethyl)phenyl)-1-methyl-1H-[1,2,3]triazolo[4,5-d]pyridine-4-carbonitrile 2,2,2-trifluoroacetate], the IC50 is reported as under 0.01 µM. `CN(C)C(=O)CN1CC(CCOc2ccc(-c3cc4c(nnn4C)c(C#N)n3)cc2C(F)(F)F)C1` [Example 31, 6-(4-(2-(1-(2-dimethylamino-2-oxoethyl)azetidin-3-yl)ethoxy)-3-(trifluoromethyl)phenyl)-1-methyl-1H-[1,2,3]triazolo[4,5-c]pyridine-4-carbonitrile Hydrochloride] gave an IC50 of under 0.01 µM. For `Cn1nnc2c(C#N)nc(-c3ccc(OCCCO)c(C(F)(F)F)c3)cc21` [Example 32, 6-(4-(3-hydroxypropoxy)-3-(trifluoromethyl)phenyl)-1-methyl-1H-[1,2,3]triazolo[4,5-c]pyridine-4-carbonitrile], the IC50 was under 0.01 µM. For `CN(C)CCCOc1ccc(-c2cc3c(nnn3C)c(C#N)n2)cc1C(F)(F)F` [Example 35, 6-(4-(3-(dimethylamino)propoxy)-3-(trifluoromethyl)phenyl)-1-methyl-1H-[1,2,3]triazolo[4,5-c]pyridine-4-carbonitrile], the IC50 was under 0.01 µM. In the case of `CCN(CC)CCCOc1ccc(-c2cc3c(nnn3C)c(C#N)n2)cc1C(F)(F)F` [Example 36q, 6-(4-(3-(diethylamino)propoxy)-3-(trifluoromethyl)phenyl)-1-methyl-1H-[1,2,3]triazolo[4,5-c]pyridine-4-carbonitrile], the IC50 is reported as under 0.01 µM. `Cn1nnc2c(C#N)nc(-c3ccc(OCCCN4CCN(CCO)CC4)c(C(F)(F)F)c3)cc21` [Example 36t, 6-(4-(3-(4-(2-hydroxyethyl)piperazin-1-yl)propoxy)-3-(trifluoromethyl)phenyl)-1-methyl-1H-[1,2,3]triazolo[4,5-c]pyridine-4-carbonitrile dihydrochloride] gave an IC50 of under 0.01 µM. `Cn1nnc2c(C#N)nc(-c3ccc(OCCCN4CCN(CC(C)(C)O)CC4)c(C(F)(F)F)c3)cc21` [Example 36u, 6-(4-(3-(4-(2-hydroxy-2-methylpropyl)piperazin-1-yl)propoxy)-3-(trifluoromethyl)phenyl)-1-methyl-1H-[1,2,3]triazolo[4,5-c]pyridine-4-carbonitrile dihydrochloride] showed an IC50 of under 0.01 µM. `CNC(=O)CN1CCN(CCCOc2ccc(-c3cc4c(nnn4C)c(C#N)n3)cc2C(F)(F)F)CC1` [Example 36v, 2-(4-(3-(4-(4-cyano-1-methyl-1H-[1,2,3]triazolo[4,5-c]pyridin-6-yl)-2-(trifluoromethyl)phenoxy)propyl)piperazin-1-yl)-N-methylacetamide dihydrochloride] was tested, and the IC50 was under 0.01 µM.
